Results as given in ChEMBL document CHEMBL1201862, “PubChem BioAssay data set” (2004).
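The compound was tested at five concentrations on cells cultured in 96-well plates, with a 48-hour exposure period. Abbreviation: GI50, concentration required for 50% inhibition of growth.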 Active and inactive are the calls of the source. Cut-off read from the data, not from the text of the source: active = GI50 up to about 1.1 µM and inactive = higher.

Key:
Experiment in all cases: growth of human tumour cells (NCI), 48 h
A549 = system: A549
ACHN = system: ACHN
CAKI-1 = system: CAKI-1
COLO 205 = system: COLO 205
HCC 2998 = system: HCC 2998
HOP-92 = system: HOP-92
K562 = system: K562
MOLT-4 = system: MOLT-4
Malme-3M = system: Malme-3M
OVCAR-8 = system: OVCAR-8
SF-268 = system: SF-268
SF-539 = system: SF-539
SK-MEL-5 = system: SK-MEL-5
SNB-75 = system: SNB-75
TK-10 = system: TK-10
UACC-257 = system: UACC-257
UACC-62 = system: UACC-62
OVCAR-5 = system: OVCAR-5
RXF 393 = system: RXF 393

Measured: GI50

C/C=C/C1OC(O)(C(C)C(O)[C@H](C)C2OC(=O)/C(OC)=C/C(C)=C/[C@@H](C)[C@@H](O)[C@@H](C)C(O)C(C)C/C(C)=C/C=C/C2OC)C[C@@H](OC2CC(O)C(OC(N)=O)C(C)O2)C1C (some centres undefined)
active: A549 < 0.01 µM | ACHN < 0.01 µM | CAKI-1 < 0.01 µM | COLO 205 < 0.01 µM | HCC 2998 < 0.01 µM | HOP-92 < 0.01 µM | K562 < 0.01 µM | MOLT-4 < 0.01 µM | Malme-3M < 0.01 µM | OVCAR-8 < 0.01 µM | SF-268 < 0.01 µM | SF-539 < 0.01 µM | SK-MEL-5 < 0.01 µM | SNB-75 < 0.01 µM | TK-10 < 0.01 µM | UACC-257 < 0.01 µM | UACC-62 < 0.01 µM

CC[C@H](C)C1=C(O)[N@+]2([O-])Oc3ccc(-c4c(O)c(O)c(-c5ccc(OC(C)=O)cc5)c(OC(C)=O)c4OC(C)=O)cc3O[C@]2([C@@H](C)CC)C(=O)N1O
inactive: A549 16.3 µM | ACHN 26.3 µM | CAKI-1 34.4 µM | COLO 205 16.3 µM | HCC 2998 11.7 µM | HOP-92 11.6 µM | K562 12.3 µM | MOLT-4 12.7 µM | Malme-3M 17.1 µM | OVCAR-5 47.1 µM | OVCAR-8 24.5 µM | RXF 393 > 50 µM | SF-268 33.3 µM | SF-539 13.1 µM | SK-MEL-5 20 µM | TK-10 25.5 µM | UACC-257 > 50 µM | UACC-62 15 µM

O=C(/C=C/c1ccc(Cl)cc1)c1ccc(Cl)s1
inactive: A549 62.2 µM | ACHN 87.3 µM | COLO 205 70.8 µM | HCC 2998 22.2 µM | HOP-92 82.4 µM | K562 30.3 µM | MOLT-4 27.7 µM | Malme-3M > 100 µM | OVCAR-5 > 100 µM | OVCAR-8 55.8 µM | RXF 393 23.2 µM | SF-268 72.1 µM | SF-539 36.5 µM | SK-MEL-5 > 10 µM | SNB-75 39 µM | TK-10 85.3 µM | UACC-257 > 100 µM | UACC-62 23.4 µM

CN(C)/C=C/C=C(/C=N/S(=O)(=O)C(F)(F)F)C1C=CN(S(=O)(=O)C(F)(F)F)C=C1
inactive: A549 32.4 µM | ACHN 28.8 µM | CAKI-1 25.6 µM | COLO 205 17.7 µM | HCC 2998 28.1 µM | HOP-92 32.7 µM | K562 37.8 µM | MOLT-4 26.2 µM | Malme-3M 32 µM | OVCAR-5 30.2 µM | OVCAR-8 37.7 µM | SF-268 48.5 µM | SK-MEL-5 23.5 µM | SNB-75 16.6 µM | TK-10 36.6 µM | UACC-257 23.1 µM | UACC-62 42.3 µM

Cn1cnc(N2CCCC2)c(C#N)c1=O
inactive: A549 > 100 µM | ACHN > 100 µM | CAKI-1 > 100 µM | COLO 205 > 100 µM | HCC 2998 > 100 µM | HOP-92 > 100 µM | K562 > 100 µM | MOLT-4 > 100 µM | Malme-3M > 100 µM | OVCAR-5 > 100 µM | OVCAR-8 > 100 µM | RXF 393 > 100 µM | SF-268 > 100 µM | SF-539 > 100 µM | SK-MEL-5 > 100 µM | TK-10 > 100 µM | UACC-257 > 100 µM | UACC-62 > 100 µM

O=P1(Oc2ccc(Cl)cc2)OCCS1 (centres undefined)
inactive: A549 > 100 µM | ACHN > 100 µM | COLO 205 > 100 µM | HCC 2998 > 100 µM | HOP-92 > 100 µM | Malme-3M > 100 µM | OVCAR-5 > 100 µM | OVCAR-8 > 100 µM | RXF 393 > 100 µM | SF-268 > 100 µM | SF-539 > 100 µM | SK-MEL-5 > 100 µM | SNB-75 > 100 µM | TK-10 > 100 µM | UACC-257 > 100 µM | UACC-62 > 100 µM

COc1ccc2c(c1)CCC1=CC3(CCC12C)SCCS3 (centres undefined)
active: SNB-75 0.649 µM
inactive: A549 8.05 µM | ACHN 5.3 µM | CAKI-1 7.52 µM | COLO 205 4.73 µM | HCC 2998 7.8 µM | HOP-92 4.97 µM | K562 3.72 µM | MOLT-4 3.8 µM | Malme-3M 5.35 µM | OVCAR-8 > 10 µM | SF-268 3.13 µM | SK-MEL-5 6.93 µM | TK-10 > 10 µM | UACC-257 > 10 µM | UACC-62 4.14 µM

COC(=O)C1=NN2c3ccccc3CN([C@@H](C)c3ccccc3)C(=O)[C@@H]2C1
inactive: A549 31.4 µM | ACHN 34 µM | CAKI-1 23.2 µM | COLO 205 35.6 µM | HCC 2998 48.2 µM | HOP-92 34.4 µM | K562 21.8 µM | MOLT-4 15 µM | Malme-3M 23.1 µM | OVCAR-5 52.1 µM | OVCAR-8 34.6 µM | RXF 393 46.6 µM | SF-268 28.7 µM | SF-539 50.7 µM | SK-MEL-5 18.7 µM | TK-10 50.7 µM | UACC-257 30.5 µM | UACC-62 19 µM

O=C1CCCSCCCC(=O)CCCSCCC1
inactive: A549 > 100 µM | COLO 205 > 100 µM | HCC 2998 > 100 µM | HOP-92 > 100 µM | K562 > 100 µM | MOLT-4 > 100 µM | OVCAR-5 > 100 µM | OVCAR-8 > 100 µM | SF-268 > 100 µM | SF-539 > 100 µM | SK-MEL-5 > 100 µM | SNB-75 93.3 µM | TK-10 > 100 µM | UACC-257 > 100 µM | UACC-62 > 100 µM

O=C1C=C2CCC[C@H]3OC(=O)C[C@@]23CC1
inactive: A549 > 100 µM | ACHN > 100 µM | CAKI-1 > 100 µM | COLO 205 > 100 µM | HCC 2998 > 100 µM | HOP-92 > 100 µM | K562 > 100 µM | MOLT-4 > 100 µM | Malme-3M > 100 µM | OVCAR-5 > 100 µM | RXF 393 > 100 µM | SF-268 > 100 µM | SF-539 > 100 µM | SK-MEL-5 > 100 µM | TK-10 > 100 µM | UACC-257 > 100 µM | UACC-62 > 100 µM

Cc1ccsc1/C(S)=N\c1ccc(Cl)c(/C=N/OC(C)(C)C)c1
inactive: A549 30.9 µM | ACHN 24.5 µM | CAKI-1 29 µM | COLO 205 16.3 µM | HCC 2998 18.5 µM | HOP-92 18 µM | MOLT-4 12.3 µM | Malme-3M 40.2 µM | OVCAR-5 > 100 µM | OVCAR-8 33 µM | RXF 393 14.8 µM | SF-268 > 100 µM | SF-539 50.5 µM | SK-MEL-5 31.5 µM | TK-10 16.6 µM | UACC-257 17.2 µM | UACC-62 32.4 µM

Nc1c(Cl)cc(-c2nc3ccccc3s2)cc1Cl
active: TK-10 0.501 µM
inactive: A549 > 100 µM | ACHN > 100 µM | COLO 205 > 100 µM | HCC 2998 > 100 µM | HOP-92 > 100 µM | K562 > 100 µM | MOLT-4 > 100 µM | Malme-3M > 100 µM | OVCAR-8 > 100 µM | RXF 393 > 100 µM | SF-268 > 100 µM | SF-539 > 100 µM | SK-MEL-5 > 100 µM | SNB-75 > 100 µM | UACC-257 > 100 µM | UACC-62 > 100 µM
